Reference: PubChem BioAssay AID1963825 (Molecular Pharmacology Branch, DTP, NCI, 2024)

Test: Anticancer human tumor 997537-175-T-J1-PDC patient-derived colon adenocarcinoma cell line growth inhibition [POLQ]
Details: 997537-175-T-J1-PDC complex spheroid viability, combination with POLQ inhibitors; for IC50: curve of first compound; for viability, T/C: stronger effect = lower value
Procedure, shortened: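 Growth inhibition in 3D: complex spheroids (tumor PDC, HUVEC, MSC) treated with POLQ inhibitor combinations; where Cmax unknown, highest tested concentration 10 microM, except SN-38 at 1 microM.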

[1] = second compound 0.0316 µM, first compound 0.0316 µM
[2] = second compound 0.0316 µM, first compound 0.1 µM
[3] = second compound 0.1 µM, first compound 0.0316 µM
[4] = second compound 0.1 µM, first compound 0.1 µM
[5] = second compound 0.316 µM, first compound 0.0316 µM
[6] = second compound 0.316 µM, first compound 0.1 µM
[7] = second compound 1 µM, first compound 0.0316 µM
[8] = second compound 1 µM, first compound 0.1 µM
[9] = second compound 3.16 µM, first compound 0.0316 µM
[10] = second compound 3.16 µM, first compound 0.1 µM
[11] = second compound 10 µM, first compound 0.0316 µM
[12] = second compound 10 µM, first compound 0.1 µM
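Further: luminescence signal used as a surrogate for viable cells; spheroids exposed to drugs for seven days before readout.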

Structure (SMILES): CCCS(=O)(=O)Nc1ccc(F)c(C(=O)c2c[nH]c3ncc(-c4ccc(Cl)cc4)cc23)c1F + COC1C(OC(N)=O)C(O)C(Oc2ccc3c(O)c(NC(=O)c4ccc(O)c(CC=C(C)C)c4)c(=O)oc3c2C)OC1(C)C
- IC50 (second compound 0.0316 µM): 5.71 µM
- IC50 (second compound 0.1 µM): 7.59 µM
- IC50 (second compound 0.316 µM): 6.66 µM
- IC50 (second compound 1 µM): 5.26 µM
- IC50 (second compound 3.16 µM): 6.2 µM
- IC50 (second compound 10 µM): 4.78 µM
- viability, T/C [1]: 93.4%
- viability, T/C [2]: 96%
- viability, T/C (second compound 0.0316 µM, first compound 0.316 µM): 87.1%
- viability, T/C (second compound 0.0316 µM, first compound 1 µM): 84.8%
- viability, T/C (second compound 0.0316 µM, first compound 3.16 µM): 71.5%
- viability, T/C (second compound 0.0316 µM, first compound 10 µM): 30.6%
- viability, T/C [3]: 102%
- viability, T/C [4]: 92.6%
- viability, T/C (second compound 0.1 µM, first compound 0.316 µM): 84.9%
- viability, T/C (second compound 0.1 µM, first compound 1 µM): 78%
- viability, T/C (second compound 0.1 µM, first compound 3.16 µM): 77%
- viability, T/C (second compound 0.1 µM, first compound 10 µM): 41.2%
- viability, T/C [5]: 82.8%
- viability, T/C [6]: 91.6%
- viability, T/C (second compound 0.316 µM, first compound 0.316 µM): 77.8%
- viability, T/C (second compound 0.316 µM, first compound 1 µM): 84.1%
- viability, T/C (second compound 0.316 µM, first compound 3.16 µM): 75%
- viability, T/C (second compound 0.316 µM, first compound 10 µM): 36.2%
- viability, T/C [7]: 86.4%
- viability, T/C [8]: 79.5%
- viability, T/C (second compound 1 µM, first compound 0.316 µM): 73.2%
- viability, T/C (second compound 1 µM, first compound 1 µM): 75.2%
- viability, T/C (second compound 1 µM, first compound 3.16 µM): 72.7%
- viability, T/C (second compound 1 µM, first compound 10 µM): 21.7%
- viability, T/C [9]: 95.6%
- viability, T/C [10]: 78.9%
- viability, T/C (second compound 3.16 µM, first compound 0.316 µM): 77.3%
- viability, T/C (second compound 3.16 µM, first compound 1 µM): 73.5%
- viability, T/C (second compound 3.16 µM, first compound 3.16 µM): 78%
- viability, T/C (second compound 3.16 µM, first compound 10 µM): 30.1%
- viability, T/C [11]: 81.4%
- viability, T/C [12]: 84%
- viability, T/C (second compound 10 µM, first compound 0.316 µM): 90.8%
- viability, T/C (second compound 10 µM, first compound 1 µM): 85.6%
- viability, T/C (second compound 10 µM, first compound 3.16 µM): 63.9%
- viability, T/C (second compound 10 µM, first compound 10 µM): 25.3%

Structure (SMILES): Cn1ncnc1[C@H]1c2n[nH]c(=O)c3cc(F)cc(c23)N[C@@H]1c1ccc(F)cc1 + COC1C(OC(N)=O)C(O)C(Oc2ccc3c(O)c(NC(=O)c4ccc(O)c(CC=C(C)C)c4)c(=O)oc3c2C)OC1(C)C
- IC50 (second compound 0.0316 µM): > 0.1 µM
- IC50 (second compound 0.1 µM): > 0.1 µM
- IC50 (second compound 0.316 µM): > 0.1 µM
- IC50 (second compound 1 µM): > 0.1 µM
- IC50 (second compound 3.16 µM): > 0.1 µM
- IC50 (second compound 10 µM): > 0.1 µM
- viability, T/C (second compound 0.0316 µM, first compound 0.000316 µM): 92.9%
- viability, T/C (second compound 0.0316 µM, first compound 0.001 µM): 99.7%
- viability, T/C (second compound 0.0316 µM, first compound 0.00316 µM): 108%
- viability, T/C (second compound 0.0316 µM, first compound 0.01 µM): 97.1%
- viability, T/C [1]: 90.9%
- viability, T/C [2]: 82.8%
- viability, T/C (second compound 0.1 µM, first compound 0.000316 µM): 102%
- viability, T/C (second compound 0.1 µM, first compound 0.001 µM): 96.8%
- viability, T/C (second compound 0.1 µM, first compound 0.00316 µM): 91.8%
- viability, T/C (second compound 0.1 µM, first compound 0.01 µM): 91.9%
- viability, T/C [3]: 97.9%
- viability, T/C [4]: 91.5%
- viability, T/C (second compound 0.316 µM, first compound 0.000316 µM): 102%
- viability, T/C (second compound 0.316 µM, first compound 0.001 µM): 95.9%
- viability, T/C (second compound 0.316 µM, first compound 0.00316 µM): 98.3%
- viability, T/C (second compound 0.316 µM, first compound 0.01 µM): 91%
- viability, T/C [5]: 91.7%
- viability, T/C [6]: 92.8%
- viability, T/C (second compound 1 µM, first compound 0.000316 µM): 104%
- viability, T/C (second compound 1 µM, first compound 0.001 µM): 97.1%
- viability, T/C (second compound 1 µM, first compound 0.00316 µM): 94.9%
- viability, T/C (second compound 1 µM, first compound 0.01 µM): 101%
- viability, T/C [7]: 104%
- viability, T/C [8]: 102%
- viability, T/C (second compound 3.16 µM, first compound 0.000316 µM): 97%
- viability, T/C (second compound 3.16 µM, first compound 0.001 µM): 104%
- viability, T/C (second compound 3.16 µM, first compound 0.00316 µM): 94.8%
- viability, T/C (second compound 3.16 µM, first compound 0.01 µM): 96.4%
- viability, T/C [9]: 105%
- viability, T/C [10]: 83.3%
- viability, T/C (second compound 10 µM, first compound 0.000316 µM): 94.7%
- viability, T/C (second compound 10 µM, first compound 0.001 µM): 94.8%
- viability, T/C (second compound 10 µM, first compound 0.00316 µM): 89.1%
- viability, T/C (second compound 10 µM, first compound 0.01 µM): 110%
- viability, T/C [11]: 98.3%
- viability, T/C [12]: 102%
